Tests used:
Streptococcus sp. FA-1 = assay: Acid production inhibition, broth-tube technique; conditions: single agent
Text: (§2) The data was compiled through well-known broth tube analysis techniques.
(a)Measured by broth-tube technique.

[1] = tested on: Mixed human oral microorganisms; assay: Acid production inhibition by aldehydes in product vehicles, broth-tube technique; format: cell-based; conditions: 1 to 5 percent aldehyde
Lactobacillus casei = assay: Acid production inhibition, broth-tube technique; conditions: single agent
Text: as §2
(a)Measured by broth-tube technique.

Streptococcus spp. KI-R = assay: Growth inhibition by aldehydes in product vehicles, pour-plate technique; format: cell-based; conditions: 1 to 5 percent aldehyde
Procedure, shortened: (§1)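 Aldehydes (1 to 5 percent by weight) were formulated into syrups, candies, mouthwash, toothpaste or toothpowder, added directly or as aqueous extracts to medium without a carbon source mixed 1:1 with filter-sterilized human saliva. Sugar came from the product or added sucrose. Growth over up to 24 hours was read by pour-plate count.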

[2] = tested on: Mixed human oral microorganisms; assay: as above; format: cell-based; conditions: 1 to 5 percent aldehyde
Procedure, shortened: as §1

[3] = tested on: Lactobacillus casei ATCC 4646; assay: as above; format: cell-based; conditions: 1 to 5 percent aldehyde
Procedure, shortened: as §1

[4] = In vivo caries evaluation, Osborne-Mendel strain 1 rat; parameters: species or system rat (Osborne-Mendel strain 1); Caries Score, Mean Incidence / Caries Score, Mean Extent: scale not given here; conditions: Table I, 90 days
Text: Standard laboratory techniques were used to complie the data presented. In each case the aldehyde was incorporated into each specimen's food in a one percent, by weight, quantity, over a period of several weeks. In all cases, caries reduction was noted.
The aldehydes tested in vivo were pyruvaldehyde, d,1-glyceraldehyde, crystalline dimer, glycolaldehyde, octanaldehyde, nonanaldehyde, decanaldehyde, undecylenic aldehyde, and lauric aldehyde. The polyaldehydes tested were dialdehyde starch, dialdehyde starch 50 percent oxidized, dialdehyde starch 90 percent oxidized, and dialdehyde galactomannan gum.
^(a) Agents were incorporated in the diet at a 1 percent level.

oral microorganisms = assay: Acid production inhibition in vitro (summary); format: cell-based; conditions: in words, summary of tables
Protocol: Other in vitro evaluations utilized a broth tube analysis of representative anticaries aldehydes incorporated in the vehicles of this invention against cultures of acid producing microorganisms normally present in the mouth. Standard laboratory procedures were utilized throughout to evaluate the acid production inhibition and growth inhibition over the incubation time of up to 24 hours.

[5] = in compressed candy tablet, 2 h incubation
[6] = in compressed candy tablet, 5 h incubation
[7] = in compressed candy tablet, 24 h incubation
[8] = in dextrose syrup, 2 h incubation
[9] = in dextrose syrup, 5 h incubation
[10] = in dextrose syrup, 24 h incubation
[11] = in sucrose syrup, 2 h incubation
[12] = in sucrose syrup, 5 h incubation
[13] = in sucrose syrup, 24 h incubation
[14] = in tooth powder (aqueous extract), 2 h incubation
[15] = in tooth powder (aqueous extract), 5 h incubation
[16] = in tooth powder (aqueous extract), 24 h incubation
[17] = in toothpaste (aqueous extract), 2 h incubation
[18] = in toothpaste (aqueous extract), 5 h incubation
[19] = in toothpaste (aqueous extract), 24 h incubation
[20] = Student's test, 95 percent confidence limit

O=CCO [Glycolaldehyde]
Acid Production Inhibition (Streptococcus sp. FA-1; 0.02 percent): 19% | Acid Production Inhibition (Streptococcus sp. FA-1; 0.03 percent): 39% | Acid Production Inhibition (Streptococcus sp. FA-1; 0.04 percent): 72% | Acid Production Inhibition [1, 5]: 0 Per Cent | Acid Production Inhibition [1, 6]: 84 Per Cent | Acid Production Inhibition [1, 7]: 72 Per Cent | Acid Production Inhibition [1, 8]: 15 Per Cent | Acid Production Inhibition [1, 9]: 87 Per Cent | Acid Production Inhibition [1, 10]: 87 Per Cent | Acid Production Inhibition ([1]; in mouthwash, 2 h incubation): 0 Per cent | Acid Production Inhibition ([1]; in mouthwash, 5 h incubation): 87 Per cent | Acid Production Inhibition ([1]; in mouthwash, 24 h incubation): 80 Per cent | Acid Production Inhibition [1, 11]: 44 Per cent | Acid Production Inhibition [1, 12]: 90 Per cent | Acid Production Inhibition [1, 13]: 85 Per cent | Acid Production Inhibition [1, 14]: 0 Per cent | Acid Production Inhibition [1, 15]: 82 Per cent | Acid Production Inhibition [1, 16]: 77 Per cent | Acid Production Inhibition [1, 17]: 0 Per cent | Acid Production Inhibition [1, 18]: 0 Per cent | Acid Production Inhibition [1, 19]: 0 Per cent | Acid Production Inhibition (Lactobacillus casei; 0.02 percent): 18% | Acid Production Inhibition (Lactobacillus casei; 0.025 percent): 23% | Acid Production Inhibition (Lactobacillus casei; 0.03 percent): 27% | Growth Inhibition (Streptococcus spp. KI-R; [5]): 99.9 Per Cent | Growth Inhibition (Streptococcus spp. KI-R; [6]): N.S. | Growth Inhibition (Streptococcus spp. KI-R; [7]): N.S. | Growth Inhibition (Streptococcus spp. KI-R; [8]): 99.1 Per Cent | Growth Inhibition (Streptococcus spp. KI-R; [9]): 100 Per Cent | Growth Inhibition (Streptococcus spp. KI-R; [10]): 100 Per Cent | Growth Inhibition (Streptococcus spp. KI-R; in mouthwash, 2 h incubation): 99.98 Per cent | Growth Inhibition (Streptococcus spp. KI-R; in mouthwash, 5 h incubation): 100 Per cent | Growth Inhibition (Streptococcus spp. KI-R; in mouthwash, 24 h incubation): 100 Per cent | Growth Inhibition (Streptococcus spp. KI-R; [11]): 80 Per cent | Growth Inhibition (Streptococcus spp. KI-R; [12]): > 99.9 Per cent | Growth Inhibition (Streptococcus spp. KI-R; [13]): > 99.99 Per cent | Growth Inhibition (Streptococcus spp. KI-R; [14]): N.S. | Growth Inhibition (Streptococcus spp. KI-R; [15]): 93.3 Per cent | Growth Inhibition (Streptococcus spp. KI-R; [16]): 100 Per cent | Growth Inhibition (Streptococcus spp. KI-R; [17]): 0 Per cent | Growth Inhibition (Streptococcus spp. KI-R; [18]): N.S. | Growth Inhibition (Streptococcus spp. KI-R; [19]): N.S. | Growth Inhibition [2, 5]: 99.3 Per Cent | Growth Inhibition [2, 6]: 100 Per Cent | Growth Inhibition [2, 7]: 100 Per Cent | Growth Inhibition [2, 8]: 99 Per Cent | Growth Inhibition [2, 9]: 100 Per Cent | Growth Inhibition [2, 10]: 91.4 Per Cent | Growth Inhibition ([2]; in mouthwash, 2 h incubation): 99.7 Per cent | Growth Inhibition ([2]; in mouthwash, 5 h incubation): 100 Per cent | Growth Inhibition ([2]; in mouthwash, 24 h incubation): 99.90 Per cent | Growth Inhibition [2, 11]: 98 Per cent | Growth Inhibition [2, 12]: > 99.99 Per cent | Growth Inhibition [2, 13]: > 99 Per cent | Growth Inhibition [2, 14]: N.S. | Growth Inhibition [2, 15]: 99.97 Per cent | Growth Inhibition [2, 16]: 100 Per cent | Growth Inhibition [2, 17]: N.S. | Growth Inhibition [2, 18]: N.S. | Growth Inhibition [2, 19]: 100 Per cent | Growth Inhibition [3, 5]: N.S. | Growth Inhibition [3, 6]: 97.3 Per Cent | Growth Inhibition [3, 7]: 100 Per Cent | Growth Inhibition [3, 8]: N.S. | Growth Inhibition [3, 9]: 98 Per Cent | Growth Inhibition [3, 10]: 100 Per Cent | Growth Inhibition [3, 11]: N.S. | Growth Inhibition [3, 12]: 93 Per cent | Growth Inhibition [3, 13]: > 99.99 Per cent | Growth Inhibition [3, 14]: N.S. | Growth Inhibition [3, 15]: N.S. | Growth Inhibition [3, 16]: 99.99 Per cent | Growth Inhibition [3, 17]: 0 Per cent | Growth Inhibition [3, 18]: N.S. | Growth Inhibition [3, 19]: 100 Per cent | Caries Score, Mean Incidence ([4]; 1 percent in diet, RCD control 23.3 (pyruvaldehyde test), 12.85 (glycolaldehyde test)): 5.53 | Caries Score, Mean Extent ([4]; 1 percent in diet, RCD control 64.8 (pyruvaldehyde test), 35.45 (glycolaldehyde test)): 13.19 | Caries Extent Reduction, statistical evaluation [4, 20]: Significant | Caries Incidence Reduction, statistical evaluation [4, 20]: Significant | Acid Production Inhibition (oral microorganisms): excellent acid production inhibition

— US4048299A, “Anticaries confectionaries and oral health products” (William Wrigley, Jr. Co., priority 1970, dated 1977)
